Assay results: US6034092A, “2-[2-[(2-hydroxyethyl)amino]ethy [ l]-5-[[2-methylamino)ethyl]amino]indazolo4,3-gh]isoquinolin-6(2H)-one as antitumor agent” (priority 1995, dated 2000)
≈ marks a conversion by molar mass, not a printed value. Where two headings read alike, the source gives them in different places.

What was measured:
[1] = W.H.O. grade; dose-limiting, phase I and II; cited from earlier work
[2] = rat; cited from earlier work
[3] = test system: P388 murine leukemia; experiment: in vivo P388 murine leukemia model, iv/iv; details: for survival time of the treated animals (in words): P388, compared with controls (untreated animals) or with analogues
Method: (§1) The evaluation of the biological activity for the compound of this invention was performed "in vitro" and "in vivo" following the protocols developed by the U.S. National Cancer Institute.
Treatment was initiated approximately 24 hours after tumor transplantation and dosages of the product were administered iv according to preestablished protocols, usually at 3-day intervals. The studies were done over a 60 day period and the date of death for each animal was recorded. The % T/C was determined using the median survival time (MST) for each group according to the formula
T/C%=[(MSTtreated)/(MSTcontrols)]×100

[4] = man; cited from earlier work
[5] = test system: human breast MX-1 tumor; experiment: in vivo human breast tumor xenograft MX-1 in mice, sc/iv; details: MX-1 sc/iv q7dx3
Method: as §1
(§2) Further in vivo studies of biological activity of the compound of the invention were carried out using two human tumor xenografts, the human breast MX-1 tumor and the ovary tumor A2780 (Table II). […] The "tumor weight inhibition" can be evaluated as follows:
(§3) TWI%=100-[(average relative weight of the tumortreated /average
(§4) relative weight of the tumorcontrols)100]
(§5) By tumor regression, it is meant the reduction of the tumor mass measured 30 days after the end of the treatment compared with the tumor starting weight. Complete tumor regression means the disappearance of the tumor mass.
(§6) In vivo biological evaluation of the compound of the invention (I),
(§7) and A 2780) models in mice

[6] = test system: ovary tumor A2780; experiment: in vivo human ovary tumor xenograft A2780 in mice, sc/iv; details: A 2780 sc/iv q4dx3; for Tumor regression: 30 days after end of treatment
Method: as §1, §2, §3, §4, §5, §6, §7

[7] = test system: human colon adenocarcinoma cell line (LoVo); experiment: in vitro cytotoxic activity, MTT assay, LoVo; assay type: cell-based; details: for IC50: Homo sapiens, read-out: IC50 ± S.D.
Method: as §1
The evaluation of the "in vitro" cytotoxic activity was performed using a human colon adenocarcinoma cell line (Lovo) isolated from a metastatic nodule.

[8] = test system: cell histotypes developing resistance already against doxorubicin; details: doxorubicin-resistant cell histotypes, over-expression of glycoprotein P; cited from earlier work
[9] = limiting aspect; cited from earlier work
[10] = test system: human breast MX-1 tumor and the ovary tumor A2780; experiment: in vivo antitumor evaluation in human tumor xenografts MX-1 and A2780; set-up: species or system human tumor xenografts in mice; details: for complete tumor regressions (in words): contrary to CI-941
Method: as §2, §3, §4, §5

[11] = 1 hour after treatment with the medicament

## O=C1c2c(O)cccc2-c2nn(CCNCCO)c3ccc(NCCNCCO)c1c23 [CI-941]
[1]
  leukopenia: severe leukopenia (W.H.O. grade 3 and 4)
  neutropenia: neutropenia (W.H.O. grade 4)
[2]
  nephrotoxicity: marked nephrotoxicity
[3]; P388 iv/iv + 1,4,7, 6 mg/kg
  T/C %: 133%
  Tox.: 0/8
[3]; P388 iv/iv + 1,4,7, 9 mg/kg
  T/C %: 144%
  Tox.: 0/8
[3]; P388 iv/iv + 1,4,7, 13.5 mg/kg
  T/C %: 133%
  Tox.: 0/8
[4]
  cardiotoxicity: irreversible cardiotoxicity
[5]; 9 mg/kg
  TWI %: 83%
  Tox.: 0/7
[5]; 13.5 mg/kg
  TWI %: 93%
  Tox.: 0/40
[5]; 17.5 mg/kg
  TWI %: 97%
  Tox.: 9/33
[6]; 8 mg/kg
  TWI %: 87%
  Tox.: 0/7
  Tumor regression: 0/7
[6]; 10.4 mg/kg
  TWI %: 97%
  Tox.: 0/7
  Tumor regression: 0/7
[6]; 13.5 mg/kg
  TWI %: 100%
  Tox.: 5/7
  Tumor regression: 1/7
[7]; 1 h
  IC50: 0.039 ± 0.035 mg/L (≈ 0.0917 µM)

## O=C1c2ccccc2C(=O)c2c(NCCNCCO)ccc(NCCNCCO)c21 [ametantrone, 4-bis{[2-(2-hydroxyethylamino)ethyl]amino]anthracene-9,10-dione]
[8]
  cross-resistance: cross-resistance
[9]
  toxicity (myelodepression): mielodepressive toxic effect

## CNCCNc1ccc2c3c(nn2CCNCCO)-c2cnccc2C(=O)c13 [compound (I)]
[3]; listed as 2-[2-[(2-hydroxyethyl)amino]ethyl]-5-[[2-(methylamino)ethyl]amino]indazolo[4,3-g
  survival time of the treated animals (in words): higher increase in the average survival time of the treated animals (expressed as % T/C) than that obtained with its analogues
[3]; listed as compound of the invention
  survival time of the treated animals (in words): active in increasing the survival time of the treated animals
[3]; P388 iv/iv + 1,4,7, 7.5 mg/kg
  T/C %: 167%
[3]; compared with mitoxantrone, Table II
  tolerability (in words): better tolerated than mitoxantrone
[3]; mouse, in vivo, iv, 7.5 mg/kg
  Tox.: 0/8
[5]; 8.9 mg/kg
  TWI %: 78%
  Tox.: 0/5
[5]; 17.5 mg/kg
  TWI %: 96%
  Tox.: 0/5
[10]; MX-1 and A2780 xenografts, compared with CI-941
  tumor weight inhibition (in words): activity equal if not higher than CI-941
[10]; tested doses
  toxic effects (in words): absence of toxic effects
[10]; tested doses, listed as 2-[2-[(2-hydroxyethyl)amino]ethyl]-5-[[2-(methylamino)ethyl]amino]indazolo[4,3-g
  complete tumor regressions (in words): complete regression of the tumor in a statistically significant number of animals
[10]; tested doses, listed as compound of the invention
  complete tumor regressions (in words): a significant number of complete tumor regressions
[6]; 7.5 mg/kg
  TWI %: 99%
  Tox.: 0/7
  Tumor regression: 4/7
[6]; 9.7 mg/kg
  TWI %: 100%
  Tox.: 0/7
  Tumor regression: 6/7
[7]; [11]
  IC50: 0.54 ± 0.17 mg/L (≈ 1.42 µM)
[7]; MTT assay, compared with doxorubicin
  in vitro cytotoxic activity (in words): activity comparable to doxorubicin

## COc1cccc2c1C(=O)c1c(O)c3c(c(O)c1C2=O)C[C@@](O)(C(=O)CO)C[C@@H]3O[C@H]1C[C@H](N)[C@H](O)[C@H](C)O1 [doxorubicin]
[7]; 1 h
  IC50: 0.7 ± 0.49 mg/L (≈ 1.29 µM)

## O=C1c2c(O)ccc(O)c2C(=O)c2c(NCCNCCO)ccc(NCCNCCO)c21 [mitoxantrone, 5,8-dihydroxy-1,4-bis{[2-(2-hydroxyethylamino)ethyly]amino]anthracene-9,10-dione]
[8]
  cross-resistance: cross-resistance
[9]
  toxicity (cardiotoxicity): cardiotoxicity
  toxicity (myelodepression): mielodepressive toxic effect
[3]; P388 iv/iv + 1,4,7, 3 mg/kg
  T/C %: 195%
  Tox.: 16/284
[5]; 4.5 mg/kg
  TWI %: 74%
[7]; [11]
  IC50: 0.026 ± 0.017 mg/L (≈ 0.0585 µM)
